# Data taken from ChEMBL document CHEMBL4616703, “Benzoxazepine-Derived Selective, Orally Bioavailable Inhibitor of Human Acidic Mammalian Chitinase” (ACS Med Chem Lett, 2020).
# What was measured:
# Chitotriosidase-1 = Chitotriosidase-1 (Homo sapiens, UniProt Q13231); test: Inhibition of full length recombinant C-terminal His-taged human CHIT1 expressed in CHOK1 cells assessed as reduction in chitinolytic activity using 4-methylumbelliferyl-beta-D-N,N',N''-[…] as substrate incubated for 60 mins under shaking condition by microplate fluorometry analysis; design: species or system CHO-K1
# [1] = AUC (0 to infinity) in Sprague-Dawley rat at 10 mg/kg, po administered as single dose measured after 24 hrs by LC-MS/MS analysis; format: ADME, organism-based; design: dose 10 mg/kg, time infinity, route oral; settings: in vivo
# [2] = biological target: T1, Voltage-gated inwardly rectifying potassium channel KCNH2 (Homo sapiens, UniProt Q12809); test: Displacement of Tracer Red from human ERG by fluorescence polarization assay
# [3] = Cmax in Sprague-Dawley rat at 10 mg/kg, po administered as single dose measured after 24 hrs by LC-MS/MS analysis; format: ADME, organism-based; design: dose 10 mg/kg, route oral; settings: in vivo
# [4] = biological target: Acidic mammalian chitinase (Homo sapiens, UniProt Q9BZP6); test: Inhibition of full length recombinant C-terminal His-tagged human acidic mammalian chitinase expressed in CHOK1 cells assessed as reduction in chitinolytic activity using 4-methylumbelliferyl-beta-D-N,N-diacetylchitobioside hydrate as substrate incubated for 60 mins under shaking condition by microplate fluorometry analysis; design: species or system CHO-K1
# [5] = Mean residence time in BALB/c mouse at 10 mg/kg, po administered as single dose measured after 24 hrs by LC-MS/MS analysis; format: ADME, organism-based; settings: in vivo
# [6] = Mean residence time in Sprague-Dawley rat at 10 mg/kg, po administered as single dose measured after 24 hrs by LC-MS/MS analysis; format: ADME, organism-based; settings: in vivo
# [7] = biological target: T1, Voltage-gated inwardly rectifying potassium channel KCNH2; test: Inhibition of human ERG expressed in CHO-K1 cells by automated Qpatch-clamp assay; format: cell-based
# [8] = Volume of distribution at steady state in BALB/c mouse at 3 mg/kg, iv administered as single bolus dose measured after 24 hrs by LC-MS/MS analysis; format: ADME, organism-based; settings: in vivo, read-out: Vdss
# [9] = AUC(0 to infinity) in Sprague-Dawley rat at 10 mg/kg, po administered as single dose measured after 24 hrs by LC-MS/MS analysis; format: ADME, organism-based; design: dose 10 mg/kg, route oral, time infinity; settings: in vivo
# [10] = Half life in BALB/c mouse at 10 mg/kg, po administered as single dose measured after 24 hrs by LC-MS/MS analysis; format: ADME, organism-based; settings: in vivo
# [11] = Clearance in BALB/c mouse at 3 mg/kg, iv administered as single bolus dose measured after 24 hrs by LC-MS/MS analysis; format: ADME, organism-based; settings: in vivo
# [12] = AUC (0 to infinity) in BALB/c mouse at 10 mg/kg, po administered as single dose measured after 24 hrs by LC-MS/MS analysis; format: ADME, organism-based; design: dose 10 mg/kg, route oral, time infinity; settings: in vivo
# [13] = Cmax in BALB/c mouse at 3 mg/kg, iv administered as single bolus dose measured after 24 hrs by LC-MS/MS analysis; format: ADME, organism-based; design: dose 3 mg/kg, route intravenous; settings: in vivo
# [14] = Oral bioavailability in BALB/c mouse at 10 mg/kg administered as single dose measured after 24 hrs by LC-MS/MS analysis; format: ADME, organism-based; settings: in vivo
# [15] = Half life in BALB/c mouse at 3 mg/kg, iv administered as single bolus dose measured after 24 hrs by LC-MS/MS analysis; format: ADME, organism-based; settings: in vivo
# [16] = Mean residence time in BALB/c mouse at 3 mg/kg, iv administered as single bolus dose measured after 24 hrs by LC-MS/MS analysis; format: ADME, organism-based; settings: in vivo
# [17] = Cmax in BALB/c mouse at 10 mg/kg, po administered as single dose measured after 24 hrs by LC-MS/MS analysis; format: ADME, organism-based; design: dose 10 mg/kg, route oral; settings: in vivo
# [18] = Tmax in BALB/c mouse at 10 mg/kg, po administered as single dose measured after 24 hrs by LC-MS/MS analysis; format: ADME, organism-based; settings: in vivo
# [19] = Half life in Sprague-Dawley rat at 10 mg/kg, po administered as single dose measured after 24 hrs by LC-MS/MS analysis; format: ADME, organism-based; settings: in vivo
# [20] = Tmax in Sprague-Dawley rat at 10 mg/kg, po administered as single dose measured after 24 hrs by LC-MS/MS analysis; format: ADME, organism-based; settings: in vivo
# [21] = AUC (0 to infinity) in BALB/c mouse at 3 mg/kg, iv administered as single dose measured after 24 hrs by LC-MS/MS analysis; format: ADME, organism-based; design: dose 3 mg/kg, route intravenous, time infinity; settings: in vivo
# Chain of Acidic mammalian chitinase (Q9BZP6 whole entry): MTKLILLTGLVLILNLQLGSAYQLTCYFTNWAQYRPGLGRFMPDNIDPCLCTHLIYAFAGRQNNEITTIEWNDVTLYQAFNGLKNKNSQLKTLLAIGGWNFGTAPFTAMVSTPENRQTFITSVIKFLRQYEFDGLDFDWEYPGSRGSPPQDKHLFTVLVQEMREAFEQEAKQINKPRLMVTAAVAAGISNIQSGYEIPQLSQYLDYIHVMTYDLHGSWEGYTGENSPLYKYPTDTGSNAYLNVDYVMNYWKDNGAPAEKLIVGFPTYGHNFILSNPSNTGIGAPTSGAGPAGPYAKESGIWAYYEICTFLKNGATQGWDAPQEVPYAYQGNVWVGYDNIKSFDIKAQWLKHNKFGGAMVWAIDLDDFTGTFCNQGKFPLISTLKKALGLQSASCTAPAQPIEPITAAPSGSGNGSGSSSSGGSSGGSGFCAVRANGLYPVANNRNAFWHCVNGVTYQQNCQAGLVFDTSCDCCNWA
# T1 sequence (Q12809 whole entry): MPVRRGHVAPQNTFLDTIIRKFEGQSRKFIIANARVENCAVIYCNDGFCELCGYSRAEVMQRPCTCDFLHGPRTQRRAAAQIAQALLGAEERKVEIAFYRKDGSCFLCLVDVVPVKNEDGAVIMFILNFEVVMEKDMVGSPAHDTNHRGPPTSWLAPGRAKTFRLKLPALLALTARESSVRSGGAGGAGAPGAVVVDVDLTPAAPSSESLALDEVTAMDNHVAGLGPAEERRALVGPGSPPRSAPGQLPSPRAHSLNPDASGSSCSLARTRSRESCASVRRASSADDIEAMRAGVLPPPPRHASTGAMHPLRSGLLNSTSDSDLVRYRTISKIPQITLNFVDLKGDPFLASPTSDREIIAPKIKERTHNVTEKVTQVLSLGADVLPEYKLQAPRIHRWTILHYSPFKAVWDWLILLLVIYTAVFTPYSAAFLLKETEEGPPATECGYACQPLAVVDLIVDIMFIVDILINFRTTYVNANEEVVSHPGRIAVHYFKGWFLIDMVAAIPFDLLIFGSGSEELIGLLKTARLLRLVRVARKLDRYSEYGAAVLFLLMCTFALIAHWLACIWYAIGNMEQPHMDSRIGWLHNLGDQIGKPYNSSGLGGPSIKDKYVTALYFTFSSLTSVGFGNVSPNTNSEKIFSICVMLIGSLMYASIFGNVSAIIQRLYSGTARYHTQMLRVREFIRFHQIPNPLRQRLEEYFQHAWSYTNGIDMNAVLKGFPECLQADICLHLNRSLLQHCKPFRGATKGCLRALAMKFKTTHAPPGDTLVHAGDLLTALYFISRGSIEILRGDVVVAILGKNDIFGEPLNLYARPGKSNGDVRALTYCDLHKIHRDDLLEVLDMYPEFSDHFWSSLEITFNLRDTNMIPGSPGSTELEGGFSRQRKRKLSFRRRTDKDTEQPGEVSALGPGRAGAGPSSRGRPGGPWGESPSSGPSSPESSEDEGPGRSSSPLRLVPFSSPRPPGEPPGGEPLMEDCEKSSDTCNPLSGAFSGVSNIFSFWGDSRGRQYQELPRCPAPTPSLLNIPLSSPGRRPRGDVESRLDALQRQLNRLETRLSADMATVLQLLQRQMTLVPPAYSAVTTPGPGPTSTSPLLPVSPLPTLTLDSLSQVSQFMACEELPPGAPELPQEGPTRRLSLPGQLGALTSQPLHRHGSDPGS
# Chain of Chitotriosidase-1 (Q13231 whole entry): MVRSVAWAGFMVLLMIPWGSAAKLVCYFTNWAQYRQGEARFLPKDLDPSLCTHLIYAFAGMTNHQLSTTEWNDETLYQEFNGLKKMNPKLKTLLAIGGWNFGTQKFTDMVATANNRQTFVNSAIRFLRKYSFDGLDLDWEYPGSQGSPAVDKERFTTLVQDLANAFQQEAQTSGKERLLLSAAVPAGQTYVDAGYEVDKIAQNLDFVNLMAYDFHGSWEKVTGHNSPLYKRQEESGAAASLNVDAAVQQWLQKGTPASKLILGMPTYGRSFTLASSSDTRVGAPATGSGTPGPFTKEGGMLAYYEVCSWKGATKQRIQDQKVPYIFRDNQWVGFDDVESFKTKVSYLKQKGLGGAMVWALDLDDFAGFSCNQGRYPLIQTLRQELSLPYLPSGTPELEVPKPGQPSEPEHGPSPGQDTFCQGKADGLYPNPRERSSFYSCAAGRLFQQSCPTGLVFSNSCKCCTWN
Structure (SMILES),IC50 (Chitotriosidase-1),AUC(0-inf) [1],IC50 [4],IC50 [2],also measured
CC(C)CN(CCc1ccc(Cl)cc1)C1CCN(c2nc(N)n[nH]2)CC1,0.229 µM,90 ng·h/mL,,,
Nc1n[nH]c(N2CCC(N(CCc3ccc(Cl)cc3)Cc3ccccc3)CC2)n1,0.122 µM,,,,
Nc1nnc(N2CCC(N3Cc4cc(Cl)cc(Cl)c4OC[C@@H]3Cc3ccc(Cl)cc3)CC2)[nH]1,> 20 µM,,0.068 µM,6 µM,
Nc1nnc(N2CCC(N3Cc4cc(Cl)ccc4OC[C@@H]3Cc3ccc(Cl)cc3)CC2)[nH]1,2.3 µM,,0.008 µM,6.7 µM,
CN(C1CCN(c2n[nH]c(N)n2)CC1)[C@H](COc1ccc(Cl)cc1)Cc1ccc(Cl)cc1,16 µM,,0.58 µM,,
Nc1nnc(N2CCC(N3Cc4ccccc4OC[C@@H]3Cc3ccc(Cl)cc3)CC2)[nH]1,0.915 µM,,0.007 µM,22 µM,MRT [5]: 50.4 min; MRT [6]: 252 min; IC50 [7]: 23 µM; Cmax [3]: 3400 ng/mL; Vd [8]: 0.35 L/kg; AUC(0-inf) [9]: 22500 ng·h/mL; half-life [10]: 66 min; clearance [11]: 16.7 mL/min/kg; AUC(0-inf) [12]: 3900 ng·h/mL; Cmax [13]: 9500 ng/mL; bioavailability [14]: 41%; half-life [15]: 84 min; MRT [16]: 20.4 min; Cmax [17]: 3100 ng/mL; Tmax [18]: 30 min; half-life [19]: 252 min; Tmax [20]: 30 min; AUC(0-inf) [21]: 2900 ng·h/mL
Nc1nc(N2CCC(N(CCc3ccc(Cl)cc3)Cc3cccc(C(F)(F)F)c3)CC2)n[nH]1,0.31 µM,13700 ng·h/mL,0.012 µM,2.7 µM,Cmax [3]: 1600 ng/mL
CN1C[C@H](Cc2ccc(Cl)cc2)N(C2CCN(c3nnc(N)[nH]3)CC2)Cc2cc(Cl)ccc21,0.42 µM,,0.0007 µM,0.8 µM,
Nc1nc(N2CCC(N(Cc3ccccc3)[C@H](CO)Cc3ccc(Cl)cc3)CC2)n[nH]1,18 µM,,0.245 µM,2.9 µM,
Nc1nc(N2CCC(N(CCc3ccc(Cl)cc3)Cc3cc(F)ccc3F)CC2)n[nH]1,0.277 µM,2400 ng·h/mL,0.005 µM,,Cmax [3]: 600 ng/mL
Nc1nc(N2CCC(N(CCc3ccc(Cl)cc3)Cc3ccc(Cl)cc3)CC2)n[nH]1,0.09 µM,7000 ng·h/mL,0.004 µM,0.4 µM,
Nc1nnc(N2CCC(N3Cc4ccncc4OC[C@@H]3Cc3ccc(Cl)cc3)CC2)[nH]1,4.4 µM,,0.055 µM,50 µM,
Nc1nc(N2CCC(N3Cc4cnccc4OC[C@@H]3Cc3ccc(Cl)cc3)CC2)n[nH]1,18 µM,,0.29 µM,17 µM,
Nc1nnc(N2CCC(N3Cc4cc(F)ccc4OC[C@@H]3Cc3ccc(Cl)cc3)CC2)[nH]1,0.93 µM,,0.007 µM,,
Nc1nc(N2CCC(N3Cc4cccnc4OC[C@@H]3Cc3ccc(Cl)cc3)CC2)n[nH]1,2.4 µM,,0.03 µM,> 50 µM,
Nc1nc(N2CCC(N(CCc3ccc(Cl)cc3)Cc3cccc(Cl)c3)CC2)n[nH]1,0.176 µM,7800 ng·h/mL,0.006 µM,3.7 µM,Cmax [3]: 780 ng/mL

# Continued, in another order:
IC50 (Chitotriosidase-1),AUC(0-inf) [1],IC50 [4],Structure (SMILES),IC50 [2],also measured
0.104 µM,1400 ng·h/mL,,Nc1n[nH]c(N2CCC(N(CCc3ccc(Cl)cc3)Cc3ccccc3Cl)CC2)n1,2 µM,
0.2 µM,7500 ng·h/mL,0.005 µM,Nc1nc(N2CCC(N(CCc3ccc(Cl)cc3)Cc3ccc(F)cc3Cl)CC2)n[nH]1,,Cmax [3]: 690 ng/mL
0.079 µM,,0.002 µM,Nc1nc(N2CCC(N(CCc3ccc(Cl)cc3)Cc3cccc(O)c3)CC2)n[nH]1,0.15 µM,
0.275 µM,,0.0014 µM,CN1C[C@H](Cc2ccc(Cl)cc2)N(C2CCN(c3nnc(N)[nH]3)CC2)Cc2ccccc21,3.2 µM,
0.62 µM,430 ng·h/mL,0.015 µM,Nc1nc(N2CCC(N(CCc3ccc(Cl)cc3)Cc3ccncc3Cl)CC2)n[nH]1,6.4 µM,Cmax [3]: 130 ng/mL
0.049 µM,,0.002 µM,Nc1nc(N2CCC(N(CCc3ccc(Cl)cc3)Cc3ccccc3O)CC2)n[nH]1,0.1 µM,
0.35 µM,,0.012 µM,C=C1COC[C@H](Cc2ccc(Cl)cc2)N(C2CCN(c3nnc(N)[nH]3)CC2)C1,,
7.3 µM,,0.049 µM,N#Cc1ccc2c(c1)CN(C1CCN(c3n[nH]c(N)n3)CC1)[C@@H](Cc1ccc(Cl)cc1)CO2,23 µM,
